The values that follow are results of earlier work, collected in patent US9636407B2, “Caspofungin acetate formulations” (priority 2012, dated 2017).

The conditions of data set [1]: background statement.
For data set [2] the following is noted: CANCIDAS prescribing information.

In the case of “1-[(4R,5S)-5-[(2-aminoethyl)amino]-N^2-(10,12-dimethyl-1-oxotetradecyl)-4-hydroxy-L-ornithine]-5-[(3R)-3-hydroxy-L-ornithine]pneumocandin B0 diacetate (salt) [caspofungin acetate]”, the oral bioavailability result in data set [1] is “poor”. For the same substance, the “pH of a saturated solution in water” value in data set [2] is recorded as “about 6.6”.
